Measurements from article PMC7772889, “Integrating biokinetics and in vitro studies to evaluate developmental neurotoxicity induced by chlorpyrifos in human iPSC-derived neural stem cells undergoing differentiation towards neuronal and glial cells” (Reproductive Toxicology (Elmsford, N.y.), 2020).

Legend:
[1] = tested on: hiPSC-derived NSCs undergoing differentiation; experiment: Neurite outgrowth by immunocytochemistry and high content imaging (β-III-tubulin); type: cell-based, human; settings: 14 days
Procedure: After 14 days of treatment with CPF at the nominal concentrations of 18.45, 21.21, 24.39, 28.05, 32.26, and 37.10 μM (37.10 μM equal to IC20), obtained considering a 1-to-1.15 dilution factor, cells were fixed with 4 % formaldehyde for 10 min and washed three times in PBS 1 × . After 15 min permeabilization with PBS 1X containing 0.1 % Triton-X-100 and 3,5 % bovine serum albumin (BSA), cells were further incubated with 3,5 % BSA and 1X PBS (blocking solution) for 15 min, to prevent nonspecific binding of antibodies, and then incubated at 4 °C overnight with primary antibodies in blocking solution. For synaptogenesis analysis, cells were stained with microtubule-associated protein-2 (MAP2, chicken, 1:3000, Abcam), synaptophysin (pre-synaptic marker) (SYP, rabbit, 1:300, Abcam), and post-synaptic density protein 95 (PSD95, mouse, 1:300, Abcam) specific antibodies. Neurite outgrowth and BDNF protein levels were assessed by staining the cells with an antibody specific for β-III-tubulin (mouse, 1:500, ThermoFisher), and one for BDNF (rabbit, 1:70, ThermoFisher). Cells were also stained for glial fibrillary acidic protein (GFAP, chicken, 1:500, Abcam). The following day, cells were washed three times with PBS 1X and incubated for 1 h at room temperature in the dark with DyLight-conjugated secondary antibodies (1:500, Abcam) and nuclei counterstained with 1 μg/mL DAPI (ThermoFisher). Mean fluorescence intensity and the relative percentages of immunocytochemically-defined cell types were quantified using the ArrayScan™ XTI High Content Platform (Cellomics) (ThermoFisher) and the ArrayScan algorithm 'Neuronal Profiling V4.1', as previously described. This algorithm applies a specific nucleus mask around the DAPI stained nucleus, distinguishing between live and pyknotic/dead cells, a cell body mask around the cell type antibody/antigen staining (i.e., MAP2, β-III-tubulin, or GFAP). Other masks were applied to identify the neurites, their branch points, and the fluorescence intensity levels of SYP and PSD95 puncta, or BDNF protein. […]

[2] = cited from earlier work
[3] = tested on: hiPSC-derived NSCs undergoing differentiation; experiment: Proportion of neurons (β-III-Tubulin+) and astrocytes (GFAP+) by immunocytochemistry and HCI; type: cell-based, human; settings: 14 days
Procedure: After 14 days of treatment with CPF at the nominal concentrations of 18.45, 21.21, 24.39, 28.05, 32.26, and 37.10 μM (37.10 μM equal to IC20), obtained considering a 1-to-1.15 dilution factor, cells were fixed with 4 % formaldehyde for 10 min and washed three times in PBS 1 × . After 15 min permeabilization with PBS 1X containing 0.1 % Triton-X-100 and 3,5 % bovine serum albumin (BSA), cells were further incubated with 3,5 % BSA and 1X PBS (blocking solution) for 15 min, to prevent nonspecific binding of antibodies, and then incubated at 4 °C overnight with primary antibodies in blocking solution. […] Neurite outgrowth and BDNF protein levels were assessed by staining the cells with an antibody specific for β-III-tubulin (mouse, 1:500, ThermoFisher), and one for BDNF (rabbit, 1:70, ThermoFisher). […] Mean fluorescence intensity and the relative percentages of immunocytochemically-defined cell types were quantified using the ArrayScan™ XTI High Content Platform (Cellomics) (ThermoFisher) and the ArrayScan algorithm 'Neuronal Profiling V4.1', as previously described. […] Other masks were applied to identify the neurites, their branch points, and the fluorescence intensity levels of SYP and PSD95 puncta, or BDNF protein. […]

[4] = tested on: neuron-only cultures; settings: cited from earlier work
[5] = cited from earlier work; remark: listed apart in the source

In the case of `CCOP(=S)(OCC)Oc1nc(Cl)c(Cl)cc1Cl` [CPF, Chlorpyrifos], the length of neurites ([1]; concentrations ≤ IC20) is reported as “not significantly affected”, the “number of branch points/neurite (neurite complexity)” value ([1]; concentrations ≤ IC20) is reported as “lower number of branch points/neurite” and the number of neurites/neuron ([1]; concentrations ≤ IC20 (18.45-37.10 μM)) is reported as “concentration dependent decrease”. For the same compound, the vapour pressure ([2]; at 25 °C) was 2.02 × 10^−5 mm Hg, the “log Kow, octanol/water partition coefficient” value [2] was 4.96 and the “increase of neuronal cell percentage (β-III-Tubulin+)” value ([3]; all tested concentrations) was 10–15%. For the same compound, the “increase of GFAP+ cell percentage vs solvent control” value ([3]; concentration dependent) was 2- to 2.8 fold, the “concentration from which inhibition of neurite length, neurite number and branch points was observed” value [4] was 10 µM and the “exposure in new-borns, concentration in blood” value [5] was “up to 4.9 μM”. The “exposure in new-borns, concentration in meconium” value [5] was 23.6 µM.
